In patent publication US20260176279A1, “DUAL RAF AND TUBULIN INHIBITORS AND METHODS OF USE THEREOF” (Deciphera Pharmaceuticals, LLC, priority 2023, published 2026):
Like-named read-outs stand apart in the source and are kept apart here. Each block holds one compound with its values, some of them ahead of it.

Columns and labels:
tubulin = experiment: Cellular Tubulin Polymerization Assay (HCT-116 cells); type: cell-based; details: read-out: Tubulin Cellular IC50
HCT-116 cells = experiment: HCT-116 Cell Proliferation Assay; type: cell-based; details: Homo sapiens
Method: HCT-116 cells (catalog #CCL-247) are obtained from the American Type Culture Collect (ATCC, Manassas, VA). Briefly, cells are grown in McCoy's 5A supplemented with 10% characterized fetal bovine serum (Invitrogen, Carlsbad, CA) and 1% Penicillin/Streptomycin/L-Glutamine at 37° C., 5% CO2, and 95% humidity. Cells are expanded until reaching 70-95% confluency at which point they are sub-cultured or harvested for assay use. A serial dilution of test compound is dispensed into a 384-well black clear bottom plate in triplicate. 375 cells are added per well in 50 μL complete growth medium in the 384-well plate. Plates are incubated for 67 to 72 h at 37° C., 5% CO2, and 95% humidity. At the end of the incubation, 40 μL of a […] solution of resazurin (Sigma, St. Louis, MO) in PBS is added to each well of the plate and plates are incubated for an additional 4 to 5 hours at 37° C., 5% CO2, and 95% humidity. Plates are read on a Synergy2 or equivalent reader (Biotek, Winooski, VT) using an excitation of 540 nm and an emission of 600 nm. Data is analyzed using Prism software (Graphpad, San Diego, CA) to calculate IC50 values.

MiaPaca-2 cells = experiment: MiaPaca-2 Cell Proliferation Assay; type: cell-based; details: Homo sapiens, MIA PaCa-2
Method: MiaPaca-2 cells (catalog #CRL-1420) are obtained from the American Type Culture Collect (ATTC, Manassas, VA). Briefly, cells were grown in DMEM supplemented with 10% characterized fetal bovine serum (Invitrogen, Carlsbad, CA), 2.5% New Zealand sourced horse serum and 1% Penicillin/Streptomycin/L-Glutamine at 37° C., 5% CO2, and 95% humidity. Cells are expanded until reaching 70-95% confluency at which point they are sub-cultured or harvested for assay use. For assays completed in 96-well plates, a serial dilution of test compound is dispensed into a 96-well black clear bottom plate in triplicate. Three thousand cells are added per well in 200 μL complete growth medium in the 96-well plate. Plates are incubated for 67 to 72 h at 37° C., 5% CO2, and 95% humidity. At the end of the incubation, 40 μL of a […] solution of resazurin (Sigma, St. Louis, MO) in PBS is added to each well of the plate and plates are incubated for an additional 5 to 6 hours at 37° C., 5% CO2, and 95% humidity. For 384-well assays, a threefold, 8-point serial dilution of compound was spotted column wise into a 384 well black, clear bottom, tissue culture treated plate using the Beckman Coulter Echo 650. Likewise, a threefold, 8-point serial dilution of cobimetinib was spotted row wise into the 384 well black, clear bottom plate containing compound. DMSO concentration was constant across all wells at 0.4%. Seven hundred fifty cells are added per well in 50 μL complete growth medium in each 384-well plate. Plates are incubated for 67 to 72 h at 37° C., 5% CO2, and 95% humidity. At the end of the incubation, 10 μL of a 440 μM solution of resazurin (Sigma, St. Louis, MO) in PBS is added to each well of the plate and plates are incubated for an additional 4 to 6 h at 37° C., 5% CO2, and 95% humidity. Plates are read on a Synergy2 or equivalent reader (Biotek, Winooski VT) using an excitation of 540 nm and an emission of 600 nm. Data is analyzed using Prism software (Graphpad, San Diego, CA) to calculate IC50 values.

HPAF-II cells = experiment: HPAF-II Cell Proliferation Assay; type: cell-based; details: Homo sapiens
Method: HPAF-II cells (catalog #CRL-1997) are obtained from the American Type Culture Collect (ATCC, Manassas, VA). Briefly, cells are grown in Minimum Essential Media supplemented with 10% characterized fetal bovine serum (Invitrogen, Carlsbad, CA) and 1% Penicillin/Streptomycin/L-Glutamine at 37° C., 5% CO2, and 95% humidity. Cells are expanded until reaching 70-95% confluency at which point they are sub-cultured or harvested for assay use. A serial dilution of test compound is dispensed into a 384-well black clear bottom plate in triplicate. 750 cells are added per well in 50 μL complete growth medium in the 384-well plate. Plates are incubated for 115 to 120 h at 37° C., 5% CO2, and 95% humidity. At the end of the incubation, 40 μL of a […] solution of resazurin (Sigma, St. Louis, MO) in PBS is added to each well of the plate and plates are incubated for an additional 18 to 24 h at 37° C., 5% CO2, and 95% humidity. Plates are read on a Synergy2 or equivalent reader (Biotek, Winooski, VT) using an excitation of 540 nm and an emission of 600 nm. Data is analyzed using Prism software (Graphpad, San Diego, CA) to calculate IC50 values.

C-Raf kinase = target: T1, C-Raf kinase (Homo sapiens, UniProt P04049, Y340D/Y341D); experiment: Biochemical Assay for C-Raf (coupled pyruvate kinase/lactate dehydrogenase assay)
T1 construct: C-Raf residues 306-end; Y340D, Y341D with N-; GST (N); purchased Eurofins
T1 sequence (P04049 307-648 Y340D/Y341D): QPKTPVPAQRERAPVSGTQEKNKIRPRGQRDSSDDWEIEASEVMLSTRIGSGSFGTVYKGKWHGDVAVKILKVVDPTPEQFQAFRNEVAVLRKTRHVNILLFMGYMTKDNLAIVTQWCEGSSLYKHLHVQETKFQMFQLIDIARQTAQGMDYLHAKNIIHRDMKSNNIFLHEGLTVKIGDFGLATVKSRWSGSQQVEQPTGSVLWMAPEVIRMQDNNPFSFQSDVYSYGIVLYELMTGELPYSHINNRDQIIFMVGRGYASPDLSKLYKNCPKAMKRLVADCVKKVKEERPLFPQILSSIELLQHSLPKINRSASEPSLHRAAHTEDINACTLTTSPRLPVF

B-Raf kinase = target: T2, B-Raf kinase (Homo sapiens, UniProt P15056); experiment: Biochemical Assay for B-Raf (coupled pyruvate kinase/lactate dehydrogenase assay)
T2 construct: GST (N); purchased Sigma
T2 sequence (P15056 416-766): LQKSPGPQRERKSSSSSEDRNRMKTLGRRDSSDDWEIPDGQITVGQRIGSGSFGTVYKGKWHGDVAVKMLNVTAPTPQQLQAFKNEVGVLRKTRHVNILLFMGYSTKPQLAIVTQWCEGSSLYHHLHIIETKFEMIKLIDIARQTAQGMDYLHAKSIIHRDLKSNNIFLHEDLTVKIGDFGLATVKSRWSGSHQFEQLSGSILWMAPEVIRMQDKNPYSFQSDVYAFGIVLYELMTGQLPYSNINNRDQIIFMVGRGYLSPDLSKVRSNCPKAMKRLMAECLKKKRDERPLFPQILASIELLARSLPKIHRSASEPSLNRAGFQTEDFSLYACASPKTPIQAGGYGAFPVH

[1] = HCT-116, Table 4, read-out: HCT-116 IC50
[2] = Table 4, read-out: MiaPaca-2 IC50
[3] = HPAF-II, Table 4, read-out: HPAF-II IC50
[4] = Table 1, inhibition of biochemical activity, read-out: CRAF
[5] = Table 1, inhibition of biochemical activity, read-out: BRAF
[6] = HCT-116, Table 3, read-out: HCT-116 IC50
[7] = Table 2, inhibition of cell proliferation, read-out: MiaPaca-2
[8] = Table 3, read-out: MiaPaca-2 IC50
[9] = HPAF-II, Table 3, read-out: HPAF-II IC50

Compound: Cc1ccc(NC(=O)Nc2ccc(C(F)(F)F)nc2)cc1-c1ccnc(-c2ccnc(NC(=O)CN(C)C)c2)c1 [Example 18]
- IC50 (C-Raf kinase; [4]): < 0.1 µM
- IC50 (C-Raf kinase; Table 3, read-out: CRAF IC50): < 0.1 µM
- IC50 (B-Raf kinase; [5]): < 0.1 µM
- IC50 (B-Raf kinase; Table 3, read-out: BRAF IC50): < 0.1 µM
- IC50 (tubulin; Table 3, HCT-116 cells): 0.1 to 0.5 µM
- IC50 (HCT-116 cells; [6]): 0.1 to 0.5 µM
- IC50 (MiaPaca-2 cells; [7]): < 0.1 µM
- IC50 (MiaPaca-2 cells; [8]): < 0.1 µM
- IC50 (HPAF-II cells; [9]): 0.1 to 0.5 µM

Compound: CNc1cc(-c2cc(-c3cc(NC(=O)Nc4ccc(C(F)(F)F)nc4)ccc3C)ccn2)ccn1 [Example 19]
- IC50 (C-Raf kinase; [4]): < 0.1 µM
- IC50 (C-Raf kinase; Table 3, read-out: CRAF IC50): < 0.1 µM
- IC50 (B-Raf kinase; [5]): 0.1 to 0.5 µM
- IC50 (B-Raf kinase; Table 3, read-out: BRAF IC50): < 0.1 µM
- IC50 (tubulin; Table 3, HCT-116 cells): < 0.1 µM
- IC50 (HCT-116 cells; [6]): 0.1 to 0.5 µM
- IC50 (HCT-116 cells; Table 2, inhibition of cell proliferation, read-out: HCT-116): 0.1 to 0.5 µM
- IC50 (MiaPaca-2 cells; [7]): 0.1 to 0.5 µM
- IC50 (MiaPaca-2 cells; [8]): 0.1 to 0.5 µM
- IC50 (HPAF-II cells; [9]): 0.1 to 0.5 µM
- IC50 (HPAF-II cells; Table 2, inhibition of cell proliferation, read-out: HPAF-II): 0.1 to 0.5 µM

Compound: CC(=O)Nc1cc(-c2cc(-c3cc(NC(=O)Nc4ccc(C(F)(F)F)cc4)cnc3C)ccn2)ccn1 [reference compound]
- IC50 (tubulin; Table 4, HCT-116 cells): 1 to 10 µM
- IC50 (HCT-116 cells; [1]): 1 to 10 µM
- IC50 (HPAF-II cells; [3]): 1 to 10 µM

Compound: CNC(=O)c1cc(-c2cnnc(-c3cc(NC(=O)N4CCC(C(C)(C)C)C4)ccc3C)c2)ccn1 (stereo not shown) [reference compound]
- IC50 (HCT-116 cells; [1]): 1 to 10 µM
- IC50 (MiaPaca-2 cells; [2]): 1 to 10 µM
- IC50 (HPAF-II cells; [3]): 1 to 10 µM

Compound: Cc1cc(F)c(NC(=O)NCCC(C)(C)C)cc1-c1cc(OCCO)nc(N2CCOCC2)c1 [reference compound]
- IC50 (C-Raf kinase; Table 4, read-out: CRAF IC50): < 0.1 µM
- IC50 (B-Raf kinase; Table 4, read-out: BRAF IC50): < 0.1 µM
- IC50 (tubulin; Table 4, HCT-116 cells): 1 to 10 µM
- IC50 (HCT-116 cells; [1]): 1 to 10 µM
- IC50 (MiaPaca-2 cells; [2]): 1 to 10 µM
- IC50 (HPAF-II cells; [3]): 1 to 10 µM

Now from value to compound, other results behind:

- IC50 (tubulin; Table 4, HCT-116 cells): 1 to 10 µM
- IC50 (HCT-116 cells; [1]): 1 to 10 µM
- IC50 (MiaPaca-2 cells; [2]): 0.5 to 1 µM
Compound: CNC(=O)c1cc(-c2cc(-c3cc(NC(=O)Nc4ccnc(C(C)(C)C#N)c4)ccc3C)ccn2)ccn1 [reference compound]

- IC50 (HCT-116 cells; [1]): 1 to 10 µM
- IC50 (MiaPaca-2 cells; [2]): 1 to 10 µM
Compound: Cc1ccc(NC(=O)N[C@@H]2CCc3ccccc32)cc1-c1cc(OCCO)nc(N2CCOCC2)c1 [reference compound]
- IC50 (HPAF-II cells; [3]): 1 to 10 µM

- IC50 (HCT-116 cells; [1]): 1 to 10 µM
- IC50 (MiaPaca-2 cells; [2]): 1 to 10 µM
Compound: Cc1cc(F)c(NC(=O)Nc2cnn(C(C)(C)C)c2)cc1-c1cc(OCCN(C)C)nc(N2CCOCC2)c1 [reference compound]
- IC50 (HPAF-II cells; [3]): 1 to 10 µM

- IC50 (tubulin; Table 4, HCT-116 cells): 1 to 10 µM
- IC50 (HCT-116 cells; [1]): 0.1 to 0.5 µM
Compound: Cc1ccc(NC(=O)Nc2cccc(C(F)(F)F)c2)cc1-c1cc(OCCO)nc(N2CCOCC2)c1 [reference compound]
